Test results reported in patent publication US20240109877A1, “PYRIMIDINES FOR DEGRADING BRUTON'S TYROSINE KINASE” (AbbVie Inc., priority 2022, published 2024).

Test system: TCL1-driven CLL bearing BTK^C481S mutation
Assay: TCL1-driven CLL bearing BTK C481S mutation in C57BL/6 mice, circulating leukemia burden
Type: in vivo, mouse
Settings: once daily (QD) for 19 days
Excerpt: EIA-TCL1 CLL transgenic mice (Crogen Pharmaceuticals LLC) were crossed with BTK^C481S knock-in mice (AbbVie) to generate Eμ-TCL1 transgenic mice carrying the BTK^C481S mutation. The leukemic splenocytes from these BTK^C481S Eμ-TCL1 transgenic mice (Passage 1) were transplanted intravenously into C57BL/6 mice, leading to CLL development in the peripheral blood and spleen. When circulating CLL burden (CD5+CD19+ cells as described below) in the recipient mice reached over 90%, their splenocytes (Passage 2) containing high CLL burden were cryopreserved and used for CLL efficacy studies. […]
To determine the absolute/total leukocyte numbers, complete blood counts were determined for each mouse using the Genesis™ veterinary hematology analyzer (Oxford Science Inc.).
Cells isolated from murine peripheral blood mononuclear cells (PMBCs) were collected to determine antigen expression. […] Cells were gated on CD45+, and thereafter the percentage of cells that were CD5+CD19+ from that subset was calculated. […]
Whole blood was collected weekly post tumor implantation via submandibular cheek bleeding. Circulating leukemic burden was calculated by multiplying absolute/total leukocyte count with the percentage of the leukocytes have the immunophenotype CD19^+CD5^+. […]

Cc1cc(-c2cc(Nc3ccc(N4CCN(CCc5ccc(N6CCC(=O)NC6=O)cc5)C[C@@H]4C)cn3)ncn2)ccc1[C@@H](C)NC(=O)c1nc(C(C)(C)C)no1 [Example 1, 3-tert-butyl-N-[(1R)-1-{4-[6-({5-[(2S)-4-{2-[4-(2,4-dioxo-1,3-diazinan-1-yl)phenyl]ethyl}-2-methylpiperazin-1-yl]pyridin-2-yl}amino)pyrimidin-4-yl]-2-methylphenyl}ethyl]-1,2,4-oxadiazole-5-carboxamide]
circulating leukemia burden (CD19+CD5+ CLL cells per μL) (Dosage 1-4, dose-dependent manner, FIG. 1): controlled circulating leukemia burden | CLL burden control (no increase from the initial tumor burden) (at Dosage 3 and Dosage 4): Complete CLL burden control
